From the supplement of paper PMC10307832

How the values were obtained:
Experiment in all cases: relative viability (nuclei count vs DMSO), 5 days (fraction); higher = more cells survive
Idelalisib + Trametinib = compound: CC[C@H](Nc1ncnc2[nH]cnc12)c1nc2cccc(F)c2c(=O)n1-c1ccccc1 [Idelalisib] + CC(=O)Nc1cccc(-n2c(=O)n(C3CC3)c(=O)c3c(Nc4ccc(I)cc4F)n(C)c(=O)c(C)c32)c1 [Trametinib] (partner 0.02 µM)
Procedure, shortened: (§1)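 Five library-drug doses in √10 steps were combined with a fixed anchor-drug dose, or a single drug was given alone, by pin tool to lung cancer cell lines in 1536-well plates the day after seeding. Nuclei were stained and counted after 5 days. Relative viability is the nuclei count in treated wells over that in vehicle wells, taken as the median of duplicate plates.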

Pemetrexed + Palbociclib = compound: Nc1nc2[nH]cc(CCc3ccc(C(=O)N[C@@H](CCC(=O)O)C(=O)O)cc3)c2c(=O)[nH]1 [Pemetrexed] + CC(=O)c1c(C)c2cnc(Nc3ccc(N4CCNCC4)cn3)nc2n(C2CCCC2)c1=O [Palbociclib] (partner 0.5 µM)
Procedure, shortened: as §1

Pemetrexed + OSI-027 = compound: Nc1nc2[nH]cc(CCc3ccc(C(=O)N[C@@H](CCC(=O)O)C(=O)O)cc3)c2c(=O)[nH]1 [Pemetrexed] + COc1cccc2cc(-c3nc([C@H]4CC[C@H](C(=O)O)CC4)n4ncnc(N)c34)[nH]c12 [OSI-027] (partner 0.5 µM)
Procedure, shortened: as §1

Idelalisib + AZD7762 = compound: CC[C@H](Nc1ncnc2[nH]cnc12)c1nc2cccc(F)c2c(=O)n1-c1ccccc1 [Idelalisib] + NC(=O)Nc1cc(-c2cccc(F)c2)sc1C(=O)N[C@H]1CCCNC1 [AZD7762] (partner 0.2 µM)
Procedure, shortened: as §1

Row | Cell Line | relative viability (Idelalisib + Trametinib; first compound 0.04 µM) | relative viability (Idelalisib + Trametinib; first compound 0.1265 µM) | relative viability (Idelalisib + Trametinib; first compound 0.4 µM) | relative viability (Idelalisib + Trametinib; first compound 1.265 µM) | relative viability (Idelalisib + Trametinib; first compound 4 µM) | relative viability (Pemetrexed + Palbociclib; first compound 0.002 µM) | relative viability (Pemetrexed + Palbociclib; first compound 0.006325 µM) | relative viability (Pemetrexed + Palbociclib; first compound 0.02 µM) | relative viability (Pemetrexed + Palbociclib; first compound 0.06325 µM) | relative viability (Pemetrexed + Palbociclib; first compound 0.2 µM) | relative viability (Pemetrexed + OSI-027; first compound 0.002 µM) | relative viability (Pemetrexed + OSI-027; first compound 0.006325 µM) | relative viability (Pemetrexed + OSI-027; first compound 0.02 µM) | relative viability (Pemetrexed + OSI-027; first compound 0.06325 µM) | relative viability (Pemetrexed + OSI-027; first compound 0.2 µM) | relative viability (Idelalisib + AZD7762; first compound 0.04 µM) | relative viability (Idelalisib + AZD7762; first compound 0.1265 µM) | relative viability (Idelalisib + AZD7762; first compound 0.4 µM) | relative viability (Idelalisib + AZD7762; first compound 1.265 µM) | relative viability (Idelalisib + AZD7762; first compound 4 µM)
1 | HCC-15 | 0.379 | 0.29 | 0.315 | 0.356 | 0.332 | 0.661 | 0.712 | 0.717 | 0.669 | 0.309 | 0.592 | 0.668 | 0.76 | 0.501 | 0.203 | 1.35 | 0.909 | 1.25 | 1.16 | 1.21
2 | NCI-H838 | 0.53 | 0.551 | 0.432 | 0.511 | 0.372 | 0.219 | 0.223 | 0.28 | 0.252 | 0.173 | 0.454 | 0.292 | 0.379 | 0.244 | 0.197 | 0.902 | 0.935 | 0.907 | 0.69 | 0.892
3 | RERF-LC-KJ | 0.84 | 0.912 | 0.804 | 0.936 | 0.66 | 0.877 | 1.08 | 1.14 | 0.976 | 0.773 | 0.528 | 0.508 | 0.666 | 0.546 | 0.451 | 1.05 | 0.947 | 0.924 | 1.06 | 0.783
4 | ChaGo-K-1 | 0.945 | 0.907 | 0.865 | 0.906 | 0.913 | 0.959 | 0.888 | 0.971 | 0.668 | 0.369 | 0.572 | 0.59 | 0.61 | 0.317 | 0.23 | 0.943 | 0.885 | 0.826 | 0.606 | 0.841
5 | NCI-H441 | 0.437 | 0.484 | – | 0.615 | 0.396 | 0.212 | 0.229 | 0.211 | 0.18 | 0.204 | 0.63 | 0.504 | 0.574 | 0.431 | 0.368 | 1.31 | 1.08 | – | 0.715 | 1.32
6 | NCI-H2170 | 1.05 | 0.941 | 0.851 | 0.893 | 0.805 | 0.371 | 0.396 | 0.435 | 0.416 | 0.378 | 0.656 | 0.698 | 0.692 | 0.708 | 0.744 | 0.859 | 0.873 | 0.819 | 0.542 | 0.737
7 | PC-14 | 0.648 | 0.757 | 0.695 | 0.723 | 0.509 | 0.578 | 0.501 | 0.471 | 0.185 | 0.118 | 0.681 | 0.769 | 1.16 | 0.197 | 0.102 | 0.313 | 0.446 | 0.334 | 0.265 | 0.301
8 | NCI-H1395 | 1.12 | 1 | 0.965 | 1.07 | 0.844 | 0.61 | 0.599 | 0.675 | 0.625 | 0.599 | 0.6 | 0.641 | 0.727 | 0.675 | 0.694 | 0.415 | 0.45 | 0.417 | 0.371 | 0.422
9 | NCI-H1437 | 0.561 | 0.547 | 0.461 | 0.545 | 0.354 | 0.214 | 0.307 | 0.303 | 0.307 | 0.329 | – | 0.828 | 0.803 | 0.432 | 0.346 | 1.09 | 1.03 | 1.06 | 0.863 | 1.15
10 | NCI-H647 | 0.431 | 0.485 | 0.423 | 0.354 | 0.239 | 0.353 | 0.352 | 0.393 | 0.288 | 0.158 | 0.467 | 0.492 | 0.806 | 0.744 | 0.318 | 0.546 | 0.631 | 0.409 | 0.198 | 0.397
11 | NCI-H1793 | 0.431 | 0.467 | – | 0.475 | 0.383 | 0.306 | 0.291 | 0.326 | 0.278 | 0.295 | 0.251 | 0.259 | 0.309 | 0.284 | 0.289 | 0.758 | 0.449 | – | 0.14 | 0.326
12 | NCI-H2087 | 0.206 | 0.23 | 0.204 | 0.205 | 0.156 | 0.161 | 0.221 | 0.245 | 0.217 | 0.214 | 0.55 | 0.512 | 0.538 | 0.589 | 0.524 | 1.34 | 1.33 | 1.32 | 1.19 | 1.32
13 | BEN | 1.01 | 0.98 | 0.929 | 0.735 | 0.766 | 0.544 | 0.473 | 0.531 | 0.457 | 0.458 | 0.318 | 0.301 | 0.302 | 0.296 | 0.332 | 0.748 | 0.739 | 0.765 | 0.584 | 0.664
14 | NCI-H3122 | 0.224 | 0.223 | 0.188 | 0.235 | 0.225 | 0.164 | 0.192 | 0.206 | 0.222 | 0.165 | 0.857 | 0.879 | 0.923 | 0.524 | 0.221 | 0.949 | 1.01 | 1.01 | 0.785 | 0.998
15 | LCLC-97TM1 | 0.194 | 0.21 | 0.216 | 0.228 | 0.163 | 0.225 | 0.228 | 0.206 | 0.21 | 0.259 | 0.552 | 0.361 | 0.61 | 0.477 | 0.235 | 0.199 | 0.382 | 0.274 | 0.107 | 0.339
16 | EMC-BAC-2 | 0.953 | 0.875 | 0.795 | 0.863 | 0.859 | 0.51 | 0.461 | 0.543 | 0.493 | 0.466 | 0.352 | 0.338 | 0.4 | 0.372 | 0.363 | 1.08 | 1.1 | 1.02 | 1.11 | 1.08
